Source: article PMC4864966, “Two unexpected promiscuous activities of the iron–sulfur protein IspH in production of isoprene and isoamylene” (Microbial Cell Factories, 2016)

Test system: T1, IspH
T1 construct: complete ORF in pET-28a(+) NcoI/XhoI, C-terminal His-tag, E. coli BL21(DE3) with isc operon, [4Fe-4S] cluster, Ni-NTA purified anaerobically
Experiment: headspace GC of isoamylene (2-methyl-2-butene and 3-methyl-1-butene) formation; Michaelis-Menten and Lineweaver-Burk
Type: biochemical, Bacillus sp. N16-5
Settings: 1 mM NADPH, 20 µM Fd, 5 µM FNR, 2 mM DTT, 20 mM Tris-HCl pH 7.8, 150 mM NaCl, 37 °C, anaerobic; DMAPP 0.1 to 1 mM

**Q.** With `CC(C)=CCOP(=O)(O)OP(=O)(O)O` [DMAPP] as the compound, how does the Km read?
**A.** Its Km is about 275 µM.
